Reference: US11047004B2, “Thiolated nucleotide analogues for nucleic acid synthesis” (LIFE TECHNOLOGIES CORPORATION, priority 2014, dated 2021)

Columns and labels:
[1] = free amino acid in solution; cited from earlier work
Bst polymerase = Bst polymerase (Geobacillus stearothermophilus, UniProt P52026); assay: Polymerase extension assay with fluorescein-labeled hairpin oligonucleotide (fluorescence increase on incorporation); format: biochemical, Bacillus stearothermophilus; conditions: 2 nM Bst polymerase, 250 nM hairpin oligonucleotide, 37° C., ex 490 nm / em 525 nm; for polymerase incorporation reaction (fluorescence increase), CIP-treated nucleotide solution: nucleotide pre-treated with CIP
Sequence of Bst polymerase (P52026 other isoform, or with tags, fused parts or gaps with the stated changes): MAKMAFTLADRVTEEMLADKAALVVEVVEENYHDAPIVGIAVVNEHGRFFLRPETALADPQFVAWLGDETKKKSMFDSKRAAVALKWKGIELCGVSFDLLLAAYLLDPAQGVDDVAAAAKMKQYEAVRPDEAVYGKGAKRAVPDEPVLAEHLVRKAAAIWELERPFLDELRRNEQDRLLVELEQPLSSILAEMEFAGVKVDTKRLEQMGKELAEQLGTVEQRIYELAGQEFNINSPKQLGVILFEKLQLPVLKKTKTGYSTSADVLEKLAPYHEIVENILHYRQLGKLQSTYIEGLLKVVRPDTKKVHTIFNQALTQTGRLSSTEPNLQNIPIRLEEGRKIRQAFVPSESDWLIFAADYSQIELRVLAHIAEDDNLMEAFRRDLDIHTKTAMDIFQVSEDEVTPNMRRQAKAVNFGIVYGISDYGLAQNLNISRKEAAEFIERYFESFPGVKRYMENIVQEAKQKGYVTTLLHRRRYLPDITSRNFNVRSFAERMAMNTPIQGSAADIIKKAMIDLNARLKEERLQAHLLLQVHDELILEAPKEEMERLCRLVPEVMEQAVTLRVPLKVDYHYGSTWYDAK
Description: For the polymerase extension assays, a fluorescein-labeled oligonucleotide substrate was designed, and used in an assay to detect nucleotide incorporation. The labeled oligonucleotide is a hairpin-type oligonucleotide with a T-fluorescein residue located at the third position from the 3′ end. The 5′ end of the labeled oligonucleotide is a single stranded sequence 3′-AGGGGGG-5′. Thus, the first nucleotide to be inserted by a polymerase onto the 3′ end of the substrate is a TTP. The 5′ and 3′ ends of the hairpin oligonucleotide is shown below. A fluorescein is attached to the T residue, which is underlined and bolded: • TGC 3′ • […] 5′ (SEQ ID NO:83)
Without wishing to be bound by theory, it is postulated that when the third base from the 3′ end is labeled with a fluorphore (in this case the labeled nucleotide is a T), and when the 3′ terminal base is a cytosine or guanosine, then the fluorphore is in a stacked position with the 3′ terminal base, resulting in quenching the fluorescence from the fluorphore. When a thymidine is incorporated at the terminal 3′ end (e.g., via polymerase-mediated nucleotide incorporation), the fluorphore is un-quenched. This assay can be performed with the hairpin molecule described herein, or with two annealed single-strands that mimic the linear ends of this hairpin molecule.
A solution was prepared in the same buffer as above containing 250 nM of the hairpin oligonucleotide, 16 μM of a short oligonucleotide (5′-CCCCCC-3′, acting as a signal amplifier), and 2 nM of Bst polymerase. […] The plate was equilibrated at 37° C. in a fluorescence microplate reader, and then the dNTP solutions were mixed with the solutions of polymerase and fluorogenic hairpin oligonucleotide. The polymerase catalyzed incorporation reactions were followed by recording the fluorescence intensity changes using 490 nm for excitation and 525 nm for the emission. When a polymerase reaction occurred, an increase in the fluorescence intensity over time was detected (see FIG. 4). There was no change in fluorescence when no nucleotide incorporation reaction occurred (see FIG. 4).

[2] = target: calf intestinal phosphatase (CIP) (Bos taurus, UniProt P19111); assay: Phosphatase resistance: calf intestinal phosphatase (CIP) pre-treatment, then polymerase extension read-out; format: biochemical; conditions: 10 u/μL CIP, 37° C., 20 min, read-out by polymerase incorporation fluorescence (FIG. 4)
Sequence of calf intestinal phosphatase (CIP) (P19111 20-506 limits assumed): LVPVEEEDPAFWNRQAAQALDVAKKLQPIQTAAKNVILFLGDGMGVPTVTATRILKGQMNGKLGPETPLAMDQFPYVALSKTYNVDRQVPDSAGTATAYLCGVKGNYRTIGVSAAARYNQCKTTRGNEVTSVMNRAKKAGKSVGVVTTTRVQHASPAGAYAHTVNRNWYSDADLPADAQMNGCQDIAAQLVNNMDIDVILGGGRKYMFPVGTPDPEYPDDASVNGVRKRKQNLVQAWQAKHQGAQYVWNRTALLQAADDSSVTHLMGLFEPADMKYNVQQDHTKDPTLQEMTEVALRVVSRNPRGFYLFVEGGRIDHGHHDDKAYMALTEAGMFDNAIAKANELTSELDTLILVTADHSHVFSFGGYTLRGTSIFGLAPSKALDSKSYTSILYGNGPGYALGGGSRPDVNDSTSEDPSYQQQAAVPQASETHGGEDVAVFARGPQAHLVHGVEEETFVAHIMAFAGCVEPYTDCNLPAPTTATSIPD
Method: As an example of this resistant, representative results from an exemplary experiment are depicted in FIG. 4. […] Phosphatase-mediated hydrolysis is reflected as a non-increasing level of fluorescence, whereas phosphatase resistance is reflected as an increase in normalized fluorescence intensity.
Two solutions were prepared as follows in 20 mM Tris HCl, pH 7.5, 20 mM NaCl, 10 mM MgCl2: (A) 80 μM of TTP, and (B) 200 μM of γ-S-TTP.
To both solution was added 1.5 μL of 10 u/μL of calf intestinal phosphatase (CIP), and the solutions were incubated at 37° C. for 20 min. The phosphatase was then removed by passing the solutions through a 10,000 molecular weight cut-off ultrafiltration membrane. The resulting solutions were then used for the polymerase extension reactions.
A solution was prepared in the same buffer as above containing 250 nM of the hairpin oligonucleotide, 16 μM of a short oligonucleotide (5′-CCCCCC-3′, acting as a signal amplifier), and 2 nM of Bst polymerase. Then 50 μL aliquots of this solution were placed in individual wells of a microtiter plate. In separate wells of the same plate were placed 50 μL aliquots of the CIP-treated solutions from above, as well as identical solutions that had not been treated with CIP. The plate was equilibrated at 37° C. in a fluorescence microplate reader, and then the dNTP solutions were mixed with the solutions of polymerase and fluorogenic hairpin oligonucleotide. The polymerase catalyzed incorporation reactions were followed by recording the fluorescence intensity changes using 490 nm for excitation and 525 nm for the emission. When a polymerase reaction occurred, an increase in the fluorescence intensity over time was detected (see FIG. 4). There was no change in fluorescence when no nucleotide incorporation reaction occurred (see FIG. 4).
A treatment of synthetically prepared γ-S-TTP with CIP can be used to remove any traces of contaminating dTTP that may be present in the preparation of γ-S-TTP.

Row | SMILES | pKa α-carboxylic acid [1] | pKa α-amino [1] | further results
1 | C[C@H](N)C(=O)O [Alanine] | 2.35 |  | 
2 | N[C@@H](CC(=O)O)C(=O)O [Aspartic Acid] |  | 9.82 | 
3 | CC[C@H](C)[C@H](N)C(=O)O [Isoleucine] |  | 9.76 | 
4 | N[C@@H](Cc1ccccc1)C(=O)O [Phenylalanine] | 2.58 | 9.24 | 
5 | Cc1cn([C@H]2C[C@H](O)[C@@H](COP(=O)(O)OP(=O)(O)OP(=O)(O)O)O2)c(=O)[nH]c1=O [TTP, thymidinyl-triphosphate, reference compound] |  |  | polymerase incorporation reaction (fluorescence increase), CIP-treated nucleotide solution (Bst polymerase): no incorporation reaction takes place; resistance to degradation by calf intestinal (alkaline) phosphatase [2]: not reflected
6 | CC(C)[C@H](N)C(=O)O [Valine] | 2.29 |  | 
7 | Cc1cn([C@H]2C[C@H](O)[C@@H](COP(=O)(O)OP(=O)(O)OP(O)(O)=S)O2)c(=O)[nH]c1=O [γ-S-TTP, γ-S-thymidinyl-triphosphate] |  |  | polymerase incorporation reaction (fluorescence increase), non-treated nucleotide solution (Bst polymerase; nucleotide not treated with CIP): polymerase reactions can be detected; polymerase incorporation reaction (fluorescence increase), CIP-treated nucleotide solution (Bst polymerase): polymerase reactions can be detected; resistance to degradation by calf intestinal (alkaline) phosphatase [2]: resistant to the alkaline phosphatase activity; resistance to degradation by calf intestinal (alkaline) phosphatase ([2]; listed as gamma STTP): showed a resistance to phosphatase
